Reference: US10954216B2, “BMP-signal-inhibiting compound” (RIKEN, priority 2016, dated 2021)

Tests used:
human ALK3 = human ALK3 (Homo sapiens (Human), UniProt P36894); assay: ALK3 enzyme inhibitory effect (33P-ATP kinase assay, Reaction Biology); format: biochemical; conditions: for inhibition at 0.3 µM: ALK3, test compound 300 nM, read-out: Inhibition rate at 300 nM
Description: (§1) ALK Enzyme Inhibitory Effect
(§2) Evaluation conditions were described in the following web pages. http://www.reactionbiology.corrilwebapps/site/Kinase_Assay_Protocol.aspx http://www.reactionbiology.corrilwebapps/site/KinaseDetail.aspx?page=Kinases&id=1

human ALK2 = human ALK2 (Homo sapiens (Human), UniProt Q04771); assay: ALK2 enzyme inhibitory effect (33P-ATP kinase assay, Reaction Biology); format: biochemical; conditions: ALK2, 10 μM ATP, 20 μM casein
Sequence of human ALK2 (Q04771 21-509): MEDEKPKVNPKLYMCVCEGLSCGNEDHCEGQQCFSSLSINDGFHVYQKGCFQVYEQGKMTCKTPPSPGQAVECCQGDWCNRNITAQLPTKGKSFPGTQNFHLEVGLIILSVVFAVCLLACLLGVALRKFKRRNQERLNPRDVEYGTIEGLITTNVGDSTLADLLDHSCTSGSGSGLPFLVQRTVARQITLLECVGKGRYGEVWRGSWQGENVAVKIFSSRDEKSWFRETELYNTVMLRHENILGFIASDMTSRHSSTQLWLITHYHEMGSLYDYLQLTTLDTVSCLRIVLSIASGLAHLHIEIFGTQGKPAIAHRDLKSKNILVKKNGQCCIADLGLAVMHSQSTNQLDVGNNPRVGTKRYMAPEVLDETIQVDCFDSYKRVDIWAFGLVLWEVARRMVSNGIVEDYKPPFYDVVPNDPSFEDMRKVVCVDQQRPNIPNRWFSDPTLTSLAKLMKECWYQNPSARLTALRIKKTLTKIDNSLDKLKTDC
Description: as §1, §2

[1] = test system: BMP signal in MDA-231-D-BREFluc/Rluc cells; assay: BMP signal inhibitory effect (AlphaScreen SureFire SMAD1 p-Ser463/465, BMP-6 stimulation); format: cell-based; conditions: BMP-6 stimulated MDA-231-D-BREFluc/Rluc cells, phospho-SMAD1 AlphaScreen; read-out: IC50
In short: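 MDA-231-D-BREFluc/Rluc cells were pretreated with compound for 2 h at 37° C, then stimulated with BMP-6 for 30 min. SMAD1 p-Ser463/465 in lysates was measured by AlphaScreen SureFire.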

human ALK6 = human ALK6 (Homo sapiens (Human), UniProt O00238); assay: ALK6 enzyme inhibitory effect (33P-ATP kinase assay, Reaction Biology); format: biochemical; conditions: for inhibition at 0.3 µM: ALK6, test compound 300 nM, read-out: Inhibition rate at 300 nM
Sequence of human ALK6 (O00238 14-502): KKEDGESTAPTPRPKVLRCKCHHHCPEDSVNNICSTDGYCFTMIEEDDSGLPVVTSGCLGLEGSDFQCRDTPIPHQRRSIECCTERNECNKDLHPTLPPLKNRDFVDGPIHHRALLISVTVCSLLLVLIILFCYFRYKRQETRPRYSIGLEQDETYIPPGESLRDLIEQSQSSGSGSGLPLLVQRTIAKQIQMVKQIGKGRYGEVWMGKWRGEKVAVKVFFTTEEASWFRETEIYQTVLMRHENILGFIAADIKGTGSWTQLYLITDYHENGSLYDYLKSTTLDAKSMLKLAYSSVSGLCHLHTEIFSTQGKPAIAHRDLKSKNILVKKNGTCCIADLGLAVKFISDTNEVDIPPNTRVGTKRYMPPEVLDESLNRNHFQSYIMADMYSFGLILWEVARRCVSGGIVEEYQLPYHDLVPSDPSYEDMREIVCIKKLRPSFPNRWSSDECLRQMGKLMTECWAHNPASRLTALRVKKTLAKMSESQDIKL
Description: as §1, §2

Sequence of human ALK3 (P36894 24-532): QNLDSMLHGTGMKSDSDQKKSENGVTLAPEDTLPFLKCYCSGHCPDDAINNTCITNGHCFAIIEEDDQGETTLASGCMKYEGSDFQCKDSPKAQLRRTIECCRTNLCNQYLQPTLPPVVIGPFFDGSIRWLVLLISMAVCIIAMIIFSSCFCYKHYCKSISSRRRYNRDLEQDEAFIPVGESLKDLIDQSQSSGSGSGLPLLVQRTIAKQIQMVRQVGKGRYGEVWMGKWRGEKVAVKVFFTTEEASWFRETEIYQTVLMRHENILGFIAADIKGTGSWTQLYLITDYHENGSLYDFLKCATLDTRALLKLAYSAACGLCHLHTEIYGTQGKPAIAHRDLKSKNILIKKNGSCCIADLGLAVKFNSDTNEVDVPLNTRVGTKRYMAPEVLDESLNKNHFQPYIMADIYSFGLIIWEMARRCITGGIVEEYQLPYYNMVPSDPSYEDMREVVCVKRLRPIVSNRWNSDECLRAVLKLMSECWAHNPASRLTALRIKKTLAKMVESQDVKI

inhibition at 0.3 µM (human ALK3) | IC50 (human ALK2) | IC50 [1] | inhibition at 0.3 µM (human ALK6) | inhibition at 0.37 µM (human ALK3; ALK3, test compound 370 nM (asterisk footnote), read-out: inhibition rate at 370 nM) | inhibition at 0.37 µM (human ALK6; ALK6, test compound 370 nM (asterisk footnote), read-out: inhibition rate at 370 nM) | SMILES
63.5% | 62.5 nM | 9.1 nM | 86.5% | – | – | FC(F)Cn1cc(-c2ccnc(Nc3ccc(N4CCNCC4)cc3)n2)c(-c2cccnc2)n1 [Example 149, 4-(1-(2,2-Difluoroethyl)-3-(pyridin-3-yl)-1H-pyrazol-4-yl)-N-(4-(piperazin-1-yl)phenyl)pyrimidin-2-amine]
– | 57 nM | 8.5 nM | – | 48.8% | 86.5% | CCn1cc(-c2ccnc(Nc3ccc(N4CCNCC4)nc3)n2)c(-c2cccnc2)n1 [Example 155, 4-(1-Ethyl-3-(pyridin-3-yl)-1H-pyrazol-4-yl)-N-(6-(piperazin-1-yl)pyridin-3-yl)pyrimidin-2-amine]
74.6% | 46.8 nM | 10.8 nM | 93.6% | – | – | CCn1cc(-c2ccnc(Nc3ccc4c(c3)CCN(C(=O)CO)C4)n2)c(-c2cccnc2)n1 [Example 175, 1-(6-((4-(1-Ethyl-3-(pyridin-3-yl)-1H-pyrazol-4-yl)pyrimidin-2-yl)amino)-3,4-dihydroisoquinolin-2(1H)-yl)-2-hydroxyethan-1-one]
47.9% | 46.2 nM | 35.6 nM | 85.3% | – | – | c1cncc(-c2nn(C3COC3)cc2-c2ccnc(Nc3ccc(N4CCNCC4)cc3)n2)c1 [Example 137, 4-(1-(Oxetan-3-yl)-3-(pyridin-3-yl)-1H-pyrazol-4-yl)-N-(4-(piperazin-1-yl)phenyl)pyrimidin-2-amine]
51.4% | 45 nM | 30.1 nM | 90.2% | – | – | CCn1cc(-c2ccnc(Nc3ccc(N4CCN(C5COC5)CC4)cc3)n2)c(-c2cccnc2)n1 [Example 15, 4-(1-ethyl-3-(pyridin-3-yl)-1H-pyrazol-4-yl)-N-(4-(4-(oxetan-3-yl)piperazin-1-yl)phenyl)pyrimidin-2-amine]
59% | 15 nM | 4 nM | 85% | – | – | CCn1cc(-c2ccnc(Nc3ccc4c(c3)CCN(CCOC)C4)n2)c(-c2cccnc2)n1 [Example 126, N-(4-(1-Ethyl-3-(pyridin-3-yl)-1H-pyrazol-4-yl)pyrimidin-2-yl)-2-(2-methoxyethyl)-1,2,3,4-tetrahydroisoquinolin-6-amine]
67.5% | 36.1 nM | 12.4 nM | 92.2% | – | – | CCn1cc(-c2ccnc(Nc3ccc(-c4cnn(C5CCNCC5)c4)cc3)n2)c(-c2cccnc2)n1 [Example 167, 4-(1-Ethyl-3-(pyridin-3-yl)-1H-pyrazol-4-yl)-N-(4-(1-(piperidin-4-yl)-1H-pyrazol-4-yl)phenyl)pyrimidin-2-amine]
60% | 54 nM | 11.7 nM | 77% | – | – | CC(C)(C)n1cc(-c2ccnc(Nc3ccc(N4CCNCC4)cc3)n2)c(-c2cccnc2)n1 [Example 135]
52.2% | 67 nM | 28.1 nM | 91.6% | – | – | CCn1cc(-c2ccnc(Nc3ccc(N4CCCCC4)cc3)n2)c(-c2cccnc2)n1 [Example 49, 4-(1-ethyl-3-(pyridin-3-yl)-1H-pyrazol-4-yl)-N-(4-(piperidin-1-yl)phenyl)pyrimidin-2-amine]
66.6% | 18 nM | 1.6 nM | 96.5% | – | – | CCn1cc(-c2ccnc(Nc3ccc4c(c3)CNCC4)n2)c(-c2cccnc2)n1 [Example 169, N-(4-(1-ethyl-3-(pyridin-3-yl)-1H-pyrazol-4-yl)pyrimidin-2-yl)-1,2,3,4-tetrahydroisoquinolin-7-amine]
67.3% | 43 nM | 1.5 nM | 93.9% | – | – | CCn1cc(-c2ccnc(Nc3ccc4c(c3)CCNC4)n2)c(-c2cccnc2)n1 [Example 168, N-(4-(1-ethyl-3-(pyridin-3-yl)-1H-pyrazol-4-yl)pyrimidin-2-yl)-1,2,3,4-tetrahydroisoquinolin-6-amine]
53% | 15 nM | 7.2 nM | 82% | – | – | CCn1cc(-c2ccnc(Nc3ccc(N4CCNCC4)c(F)c3)n2)c(-c2cccnc2)n1 [Example 152, 4-(1-Ethyl-3-(pyridin-3-yl)-1H-pyrazol-4-yl)-N-(3-fluoro-4-(piperazin-1-yl)phenyl)pyrimidin-2-amine]
48% | 40 nM | 22.8 nM | 76% | – | – | COCCn1cc(-c2ccnc(Nc3ccc(N4CCNCC4)cc3)n2)c(-c2cccnc2)n1 [Example 71, 4-(1-(2-methoxyethyl)-3-(pyridin-3-yl)-1H-pyrazol-4-yl)-N-(4-(piperazin-1-yl)phenyl)pyrimidin-2-amine]

SMILES | inhibition at 0.3 µM (human ALK3) | IC50 (human ALK2) | IC50 [1] | inhibition at 0.3 µM (human ALK6) | inhibition at 0.37 µM (human ALK3; ALK3, test compound 370 nM (asterisk footnote), read-out: inhibition rate at 370 nM) | inhibition at 0.37 µM (human ALK6; ALK6, test compound 370 nM (asterisk footnote), read-out: inhibition rate at 370 nM)
CCn1cc(-c2ccnc(Nc3ccc4c(c3)CCN(C(C)=O)C4)n2)c(-c2cccnc2)n1 [Example 75, 1-(6-((4-(1-Ethyl-3-(pyridin-3-yl)-1H-pyrazol-4-yl)pyrimidin-2-yl)amino)-3,4-dihydroisoquinolin-2(1H)-yl)ethan-1-one] | 67.5% | 28 nM | 14.8 nM | 92.9% | – | –
